The target of the experiment is T1, AsPC-1 HiBiT-KRASG12D (Homo sapiens, UniProt P01116, G12D).
T1 construct: insert the HiBiT tag onto the N-terminus of one or more of the endogenous KRAS alleles; endogenous in cells; host or cells: AsPC-1 (ATCC CRL-1682), CRISPR-Cas9 knock-in clone, one tagged allele
The experiment can be described thus: HiBiT degradation assay (G12D), AsPC-1 HiBiT-KRASG12D cells. It counts as cell-based. To be noted: 24 hours treatment; for Dmax: ASPC1, AsPC-1 HiBiT-KRASG12D cells, maximum degradation observed; for DC50: AsPC-1 HiBiT-KRASG12D cells, HiBiT luminescence. In outline:
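Steps: treat HiBiT-KRASG12D AsPC-1 cells with compound for 24 hours; add alamar blue to 1× and incubate 4 hours to assess viability; wash with PBS; add HiBiT lytic detection reagent, incubate 45 minutes at room temperature; read luminescence. Viability fluorescence is normalized to DMSO wells.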
For orientation: The HiBiT peptide binds its large partner to form an active luciferase.

Some results are limits rather than exact numbers.

T1 sequence (P01116 1-188 isoform P01116-2 G12D): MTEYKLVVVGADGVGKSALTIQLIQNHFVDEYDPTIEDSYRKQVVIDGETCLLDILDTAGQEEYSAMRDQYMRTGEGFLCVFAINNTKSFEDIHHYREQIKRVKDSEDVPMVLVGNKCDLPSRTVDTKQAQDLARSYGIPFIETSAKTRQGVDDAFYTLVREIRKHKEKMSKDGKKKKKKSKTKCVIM

One may read the Dmax as the largest share of the target that was removed. A word on the DC50: it is the midpoint of the concentration-degradation curve. Higher therefore signals a less potent degrader. The compound `C#Cc1c(F)ccc2cc(O)cc(-c3ncc4c(N5CC6CCC(C5)N6)nc(OCCN5CCC(F)(CN6CCN(c7cc([C@@H](C(=O)N8C[C@H](O)C[C@H]8C(=O)N[C@@H](C)c8ccc(-c9ccnn9C)cc8)C(C)C)on7)CC6)CC5)nc4c3F)c12` [Compound 171, (2S,4R)-1-[(2S)-2-(3-{4-[(1-{2-[(4-{3,8-diazabicyclo[3.2.1]octan-3-yl}-7-(8-ethynyl-7-fluoro-3-hydroxynaphthalen-1-yl)-8-fluoropyrido[4,3-d]pyrimidin-2-yl)oxy]ethyl}-4-fluoropiperidin-4-yl)methyl]piperazin-1-yl}-1,2-oxazol-5-yl)-3-methylbutanoyl]-4-hydroxy-N-[(1S)-1-[4-(1-methyl-1H-pyrazol-5-yl)phenyl]ethyl]pyrrolidine-2-carboxamide] gave a Dmax of 20 to 60% and a DC50 of 1000 to 3000 nM. In turn, `C#Cc1c(F)ccc2cc(O)cc(-c3ncc4c(N5CC6CCC(C5)N6)nc(OCCN5CCC(F)(CN6CCN(c7cc([C@H](C(=O)N8C[C@H](O)C[C@H]8C(=O)N[C@@H](C)c8ccc(-c9scnc9C)cc8)C(C)C)on7)CC6)CC5)nc4c3F)c12` [Compound 172, (2S,4R)-1-[(2R)-2-(3-{4-[(1-{2-[(4-{3,8-diazabicyclo[3.2.1]octan-3-yl}-7-(8-ethynyl-7-fluoro-3-hydroxynaphthalen-1-yl)-8-fluoropyrido[4,3-d]pyrimidin-2-yl)oxy]ethyl}-4-fluoropiperidin-4-yl)methyl]piperazin-1-yl}-1,2-oxazol-5-yl)-3-methylbutanoyl]-4-hydroxy-N-[(1S)-1-[4-(4-methyl-1,3-thiazol-5-yl)phenyl]ethyl]pyrrolidine-2-carboxamide] yielded a Dmax of 80 to 100% and a DC50 of less than 600 nM. As to `C#Cc1c(F)ccc2cc(O)cc(-c3ncc4c(N5CC6CCC(C5)N6)nc(OCCN5CCC(CCOc6cc([C@H](C(=O)N7C[C@H](O)C[C@H]7C(=O)N[C@@H](C)c7ccc(-c8scnc8C)cc7)C(C)C)on6)CC5)nc4c3F)c12` [Compound 173, (2S,4R)-1-[(2R)-2-{3-[2-(1-{2-[(4-{3,8-diazabicyclo[3.2.1]octan-3-yl}-7-(8-ethynyl-7-fluoro-3-hydroxynaphthalen-1-yl)-8-fluoropyrido[4,3-d]pyrimidin-2-yl)oxy]ethyl}piperidin-4-yl)ethoxy]-1,2-oxazol-5-yl}-3-methylbutanoyl]-4-hydroxy-N-[(1S)-1-[4-(4-methyl-1,3-thiazol-5-yl)phenyl]ethyl]pyrrolidine-2-carboxamide], the Dmax lay in the range of 80 to 100% and the DC50 was less than 600 nM.

For `C#Cc1c(F)ccc2cc(O)cc(-c3ncc4c(N5CC6CCC(C5)N6)nc(OCCN5CCC(CCOc6cc([C@@H](C(=O)N7C[C@H](O)C[C@H]7C(=O)N[C@@H](C)c7ccc(-c8scnc8C)cc7)C(C)C)on6)CC5)nc4c3F)c12` [Compound 174, (2S,4R)-1-[(2S)-2-{3-[2-(1-{2-[(4-{3,8-diazabicyclo[3.2.1]octan-3-yl}-7-(8-ethynyl-7-fluoro-3-hydroxynaphthalen-1-yl)-8-fluoropyrido[4,3-d]pyrimidin-2-yl)oxy]ethyl}piperidin-4-yl)ethoxy]-1,2-oxazol-5-yl}-3-methylbutanoyl]-4-hydroxy-N-[(1S)-1-[4-(4-methyl-1,3-thiazol-5-yl)phenyl]ethyl] pyrrolidine-2-carboxamide], the Dmax was in the range of 80 to 100% and the DC50 is less than 600 nM.

In the case of `C#Cc1c(F)ccc2cc(O)cc(-c3ncc4c(N5CC6CCC(C5)N6)nc(OCCN5CCC(C(C)(C)N6CCN(c7cc([C@H](C(=O)N8C[C@H](O)C[C@H]8C(=O)N[C@@H](C)c8ccc(-c9scnc9C)cc8)C(C)C)on7)CC6)CC5)nc4c3F)c12` [Compound 175, (2S,4R)-1-[(2R)-2-(3-{4-[2-(1-{2-[(4-{3,8-diazabicyclo[3.2.1]octan-3-yl}-7-(8-ethynyl-7-fluoro-3-hydroxynaphthalen-1-yl)-8-fluoropyrido[4,3-d]pyrimidin-2-yl)oxy]ethyl}piperidin-4-yl)propan-2-yl]piperazin-1-yl}-1,2-oxazol-5-yl)-3-methylbutanoyl]-4-hydroxy-N-[(1S)-1-[4-(4-methyl-1,3-thiazol-5-yl)phenyl]ethyl] pyrrolidine-2-carboxamide], the Dmax was in the range of 80 to 100% and the DC50 is less than 600 nM. The like results for `C#Cc1c(F)ccc2cc(O)cc(-c3ncc4c(N5CC6CCC(C5)N6)nc(OCCN5CCC(C6CCN(c7cc([C@H](C(=O)N8C[C@H](O)C[C@H]8C(=O)N[C@@H](C)c8ccc(-c9scnc9C)cc8)C(C)C)on7)CC6)CC5)nc4c3F)c12` [Compound 176, (2S,4R)-1-[(2R)-2-[3-(1′-{2-[(4-{3,8-diazabicyclo[3.2.1]octan-3-yl}-7-(8-ethynyl-7-fluoro-3-hydroxynaphthalen-1-yl)-8-fluoropyrido[4,3-d]pyrimidin-2-yl)oxy]ethyl}-[4,4′-bipiperidin]-1-yl)-1,2-oxazol-5-yl]-3-methylbutanoyl]-4-hydroxy-N-] were, in that order, 80 to 100% and less than 600 nM. `C#Cc1c(F)ccc2cc(O)cc(-c3ncc4c(N5CC6CCC(C5)N6)nc(OCCN5CCC(C6CCN(c7cc([C@@H](C(=O)N8C[C@H](O)C[C@H]8C(=O)N[C@@H](C)c8ccc(-c9scnc9C)cc8)C(C)C)on7)CC6)CC5)nc4c3F)c12` [Compound 177, (2S,4R)-1-[(2S)-2-[3-(1′-{2-[(4-{3,8-diazabicyclo[3.2.1]octan-3-yl}-7-(8-ethynyl-7-fluoro-3-hydroxynaphthalen-1-yl)-8-fluoropyrido[4,3-d]pyrimidin-2-yl)oxy]ethyl}-[4,4′-bipiperidin]-1-yl)-1,2-oxazol-5-yl]-3-methylbutanoyl]-4-hydroxy-N-[(1S)-1-[4-(4-methyl-1,3-thiazol-5-yl)phenyl]ethyl]pyrrolidine-2-carboxamide] registered a Dmax of 60 to 80% and a DC50 of less than 600 nM.

Compound `C#Cc1c(F)ccc2cc(O)cc(-c3ncc4c(N5CC6CCC(C5)N6)nc(OCCN5CCC(CN6CCN(c7cnc(C(=O)N[C@H](C(=O)N8C[C@H](O)C[C@H]8C(=O)N[C@@H](C)c8ccc(-c9scnc9C)cc8)C(C)(C)C)cn7)CC6)CC5)nc4c3F)c12` [Compound 179, 5-{4-[(1-{2-[(4-{3,8-diazabicyclo[3.2.1]octan-3-yl}-7-(8-ethynyl-7-fluoro-3-hydroxynaphthalen-1-yl)-8-fluoropyrido[4,3-d]pyrimidin-2-yl)oxy]ethyl}piperidin-4-yl)methyl]piperazin-1-yl}-N-[(2S)-1-[(2S,4R)-4-hydroxy-2-{[(1S)-1-[4-(4-methyl-1,3-thiazol-5-yl)phenyl]ethyl]carbamoyl}pyrrolidin-1-yl]-3,3-dimethyl-1-oxobutan-2-yl]pyrazine-2-carboxamide] gave a Dmax of 80 to 100% and a DC50 of less than 600 nM. Compound `CCc1cccc2cc(O)cc(-c3ncc4c(N5CC6CCC(C5)N6)nc(N5CC(N6CCC(CC7CN(c8cc([C@@H](C(=O)N9C[C@H](O)C[C@H]9C(=O)N[C@@H](C)c9ccc(-c%10scnc%10C)cc9)C(C)C)on8)C7)CC6)C5)nc4c3F)c12` [Compound 180] showed a DC50 of more than 3000 nM.

(Values after US20250206732A1, “COMPOUNDS AND METHODS FOR THE TARGETED DEGRADATION OF KRAS” (Arvinas Operations, Inc., priority 2022, published 2025).)
